This is an account of results in patent US9340580B2, “Peptide with multiple epitopes” (priority 2007, dated 2016).

Series [1] is described as follows: solubility pre-screen in an aqueous, acidic milieu. The format is physicochemical.
A short description of series [2]: precipitation in the aqueous solution of the binding assay. The settings on record: read-out: Precipitation in assay: lowest concentration at which an insoluble white precipitate is seen. The series is classed as physicochemical. From the text:
(§1) This is a characteristic of promiscuous HLA-DRB1* binders.

Another series has as its target DRB1*0701 (Homo sapiens, UniProt P01903+P01911, A100R/A102G/A103Q/D57E/D86V/E43K/F76Y/K127E/L162R/M171V/P40G/Q125H/Q99D/R33Q/R42Y/R54Q/S133A/S66F/T210M/V115G/Y107V/Y59L/Y89S). Put plainly: competitive MHC class II binding assay. The settings on record: control peptide Influenza haemagglutinin 307-319.
Description: as §1

In a further series the target is DRB1*0401 (Homo sapiens, UniProt P01903+P01911, A100K/A169T/F76Y/I96L/K127E/L162R/M171V/N62H/P40V/Q125Y/R42H/S133A/S149N/S66Y/V115G/V209L/W38E). In words: competitive MHC class II binding assay. The note with it: control peptide Influenza haemagglutinin 307-319.
Description: as §1

The target in another series is DQA1*0102/DQB1*0602 (Homo sapiens, UniProt P01909+P01920, A157G/A45G/C70R/E118A/E183D/E77G/F83G/G63E/H151Q/H199R/H252R/H253Q/I129T/I235V/I88M/INS77G/K197Q/L117V/L119F/L178F/L71W/L74F/L85Q/L91A/L98M/N214S/P87R/Q116E/Q76K/R102G/R240Q/R75S/R78G/S102Y/S185I/S41F/S97I/T121G/T122I/T172A/T86R/V229M/V68A/V73E/Y34C/Y41F/Y58L). Put plainly: competitive MHC class II binding assay. The settings on record: control peptide Human Insulin B 1-15. The procedure:
as §1
In addition, to identify lower affinity binders, the assay was also carried out under less stringent conditions. All the Der p binding peptides were seen to have a high ratio when tested against this allotype, showing they were low affinity binders compared to the control peptide. The DQA1*0102/DQB1*0602 binding assay uses a peptide from the B-chain of human insulin which is of lower affinity compared to those used in the DR assays. This dictates that the DQ assay is very sensitive and tends to produce very low ratio values for the strongest binders to this MHC Class II allotype. This sensitivity also accounts for the relatively higher number of DQ binding peptides within the panel screened. Finally, on closer analysis, the peptides identified as ligands for the DRB1*0101,*0401, *0701 superfamily, are found to incorporate a motif that is characteristic of promiscuous binders to this family of allotypes where: P1=Y, F, W, L, I, V, or M (Large aromatic or hydrophobic residue), P6=S, T, C, A, P, V, I, M (small, non-charged residue)

Another series addresses DRB1*1101 (Homo sapiens, UniProt P01903+P01911, A100R/A169T/A87E/I96F/K41T/L162R/M171V/P40S/Q125H/Q178H/Q39Y/Q99D/R42S/S66Y/T262R/V115G/W38E). In words: competitive MHC class II binding assay. The settings on record: control peptide Influenza haemagglutinin 307-319.
Description: as §1

Several values for one entry are separate records, joined by “and”; a condition that tells them apart may be missing. Identical values can stand only once. Where a SMILES comes first, the peptide text is derived from it.

Take `CSCC[C@H](NC(=O)[C@H](CO)NC(=O)[C@@H](NC(=O)[C@@H](NC(=O)[C@H](CC(=O)O)NC(=O)[C@H](CC(=O)O)NC(=O)[C@@H](N)Cc1c[nH]cn1)C(C)C)C(C)C)C(=O)N[C@@H](CCC(=O)O)C(=O)N[C@@H](Cc1ccc(O)cc1)C(=O)N[C@@H](CC(=O)O)C(=O)N[C@@H](CC(C)C)C(=O)N[C@@H](C)C(=O)N[C@@H](Cc1ccc(O)cc1)C(=O)N[C@@H](CCCCN)C(=O)N[C@@H](CC(C)C)C(=O)O` [HDM39A] (H-HDDVVSMEYDLAYKL-OH; N-terminus and C-terminus assumed): the Solubility test result in series [1] is reported as “YES”. In addition, the solubility in series [2] was 1000 µM and 1800 µg/mL. Moreover, on DRB1*0701, the “relative binding: ratio of peptide IC50 to control peptide IC50, DRB1*0701” value is 0.71. Moreover, the “relative binding: ratio of peptide IC50 to control peptide IC50, DRB1*0401” value on DRB1*0401 worked out at 76.19. Besides, the “relative binding: ratio of peptide IC50 to control peptide IC50, DQA1*0102 DQB1*0602” value at DQA1*0102/DQB1*0602 came to 0.1.
Consider `CSCC[C@H](NC(=O)[C@H](CO)NC(=O)[C@@H](N)C(C)C)C(=O)N[C@@H](CCC(=O)O)C(=O)N[C@@H](Cc1ccc(O)cc1)C(=O)N[C@@H](CC(=O)O)C(=O)N[C@@H](CC(C)C)C(=O)N[C@@H](C)C(=O)N[C@@H](Cc1ccc(O)cc1)C(=O)N[C@@H](CCCCN)C(=O)N[C@@H](CC(C)C)C(=O)NCC(=O)N[C@@H](CC(=O)O)C(=O)N[C@@H](CC(C)C)C(=O)N[C@@H](Cc1c[nH]cn1)C(=O)O` [HDM40A] (H-VSMEYDLAYKLGDLH-OH; N-terminus and C-terminus assumed), for which the Solubility test entry in series [1] is given as “YES”. The solubility in series [2] is 1000 µM and 1800 µg/mL. Besides, the “relative binding: ratio of peptide IC50 to control peptide IC50, DRB1*0701” value on DRB1*0701 is 2.29. The “relative binding: ratio of peptide IC50 to control peptide IC50, DRB1*1101” value at DRB1*1101 is recorded as 6.
